The target of the experiment is T1, human A2a receptor (Homo sapiens, UniProt P29274).
T1 construct: purchased Perkin-Elmer RBHA2AM400UA; host or cells: HEK293 cells (membranes)
The experiment is described as follows: A2a competition binding assay, Scintillation Proximity technology. The following applies: membranes from HEK293 cells expressing human A2a receptor; Ki by Cheng-Prusoff equation. The essentials:
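SPA competition: 0.5 nM tritiated pyrazolotriazolopyrimidine ligand displaced by compound at 3000 to 0.15 nM, 1 h room temperature, human A2a HEK293 membranes pretreated with adenosine deaminase, PBS/10 mM MgCl2 buffer. CGS15943 1 μM defined non-specific binding; EC50 converted to Ki via Cheng-Prusoff.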
For orientation: In a scintillation proximity assay essentially only radioactivity close to the scintillant gives light.

T1 sequence (P29274 whole entry): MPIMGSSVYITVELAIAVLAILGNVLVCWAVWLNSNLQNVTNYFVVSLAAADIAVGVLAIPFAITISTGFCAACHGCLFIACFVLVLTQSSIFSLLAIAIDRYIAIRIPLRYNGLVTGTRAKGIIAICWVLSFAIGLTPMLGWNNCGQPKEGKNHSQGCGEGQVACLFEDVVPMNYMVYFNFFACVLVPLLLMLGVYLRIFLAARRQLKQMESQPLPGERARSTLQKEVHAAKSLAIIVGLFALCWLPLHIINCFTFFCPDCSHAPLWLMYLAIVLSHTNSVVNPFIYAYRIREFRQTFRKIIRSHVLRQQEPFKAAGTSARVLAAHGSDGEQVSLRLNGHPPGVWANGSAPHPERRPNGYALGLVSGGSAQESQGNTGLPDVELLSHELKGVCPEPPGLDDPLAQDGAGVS

For orientation: Ki means the dissociation constant of the complex between target and ligand, obtained from inhibition or displacement. A lower Ki goes with tighter binding. `Cc1coc(-c2nc(N)c(C(=O)NCc3ncccc3C)nc2C)n1` [Ex-380, 3-amino-6-methyl-5-(4-methyl-1,3-oxazol-2-yl)-N-[(3-methylpyridin-2-yl)methyl]pyrazine-2-carboxamide] gave a Ki of 0.384 nM.
The result for `Cc1cccnc1CNC(=O)c1nc(C)c(-c2nc(C)c(C)o2)nc1N` [Ex-381, 3-amino-5-(4,5-dimethyl-1,3-oxazol-2-yl)-6-methyl-N-[(3-methylpyridin-2-yl)methyl]pyrazine-2-carboxamide] reads 80.5 nM; that for `COCc1coc(-c2nc(N)c(C(=O)NCc3ncccc3C)nc2C)n1` [Ex-382, 3-amino-5-[4-(methoxymethyl)-1,3-oxazol-2-yl]-6-methyl-N-[(3-methylpyridin-2-yl)methyl]pyrazine-2-carboxamide], 38.4 nM; that for `Cc1cnc(-c2nc(N)c(C(=O)NCc3ncccc3C)nc2C)o1` [Ex-383, 3-amino-6-methyl-5-(5-methyl-1,3-oxazol-2-yl)-N-[(3-methylpyridin-2-yl)methyl]pyrazine-2-carboxamide], 6.4 nM.
Compound `Cc1cccnc1CNC(=O)c1nc(C)c(-c2ncc(C(F)(F)F)o2)nc1N` [Ex-384, 3-amino-6-methyl-N-[(3-methylpyridin-2-yl)methyl]-5-[5-(trifluoromethyl)-1,3-oxazol-2-yl]pyrazine-2-carboxamide] registered a Ki of 63.7 nM.
The result for `N#Cc1nc(C(=O)NCc2cccc3cccnc23)c(N)nc1-n1cccn1` [Ex-385, 3-amino-6-cyano-5-(1H-pyrazol-1-yl)-N-(quinolin-8-ylmethyl)pyrazine-2-carboxamide] reads 0.6 nM; that for `N#Cc1nc(C(=O)NCc2ncccc2C(F)(F)F)c(N)nc1-c1ncco1` [Ex-386, 3-amino-6-cyano-5-(1,3-oxazol-2-yl)-N-{[3-(trifluoromethyl)pyridin-2-yl]methyl}pyrazine-2-carboxamide], 0.3 nM; that for `Cc1cnn(-c2nc(N)c(C(=O)NCc3cccc4cccnc34)nc2C(F)F)c1` [Ex-387, 3-amino-6-(difluoromethyl)-5-(4-methyl-1H-pyrazol-1-yl)-N-(quinolin-8-ylmethyl)pyrazine-2-carboxamide], 2.8 nM.
The result for `Nc1nc(-n2nccn2)c(CO)nc1C(=O)NCc1cccc2cccnc12` [Ex-388, 3-amino-6-(hydroxymethyl)-N-(quinolin-8-ylmethyl)-5-(2H-1,2,3-triazol-2-yl)pyrazine-2-carboxamide] reads 2.5 nM.

Values taken from patent publication US10472347B2, “Aminopyrazine compounds with A2A antagonist properties” (Merck Sharp & Dohme Corp., priority 2014, dated 2019).
